What is called IC50 is the midpoint of a concentration-inhibition curve. Lower therefore signals higher potency.

The target in the assay is T1, γ-secretase (presenilin-1, PS1) (Mus musculus, UniProt P49769).
T1 construct: gene Psen1; endogenous γ-secretase complex in N2a (NAG) cells, APPGV16 as substrate; with Nicastrin and the other subunits of the heterotetrameric γ-secretase complex
The assay is described as follows: Gal4-luciferase reporter of γ-secretase cleavage of APPGV16 in stable N2a cells, […] h; CTF accumulation by western blot. In kind it is cell-based.

With `C[C@H](NC(=O)Cc1cc(F)cc(F)c1)C(=O)N[C@H](C(=O)OC(C)(C)C)c1ccccc1` [DAPT], the IC50 is approximately 1000 nM.

The values above are taken from PMC2817752, “Phenylbutyric Acid Rescues Endoplasmic Reticulum Stress-Induced Suppression of APP Proteolysis and Prevents Apoptosis in Neuronal Cells” (PLoS ONE, 2010).
